Assay [1] addresses T1, Poly [ADP-ribose] polymerase tankyrase-2 (Homo sapiens, UniProt Q9H2K2).
T1 sequence (Q9H2K2 whole entry): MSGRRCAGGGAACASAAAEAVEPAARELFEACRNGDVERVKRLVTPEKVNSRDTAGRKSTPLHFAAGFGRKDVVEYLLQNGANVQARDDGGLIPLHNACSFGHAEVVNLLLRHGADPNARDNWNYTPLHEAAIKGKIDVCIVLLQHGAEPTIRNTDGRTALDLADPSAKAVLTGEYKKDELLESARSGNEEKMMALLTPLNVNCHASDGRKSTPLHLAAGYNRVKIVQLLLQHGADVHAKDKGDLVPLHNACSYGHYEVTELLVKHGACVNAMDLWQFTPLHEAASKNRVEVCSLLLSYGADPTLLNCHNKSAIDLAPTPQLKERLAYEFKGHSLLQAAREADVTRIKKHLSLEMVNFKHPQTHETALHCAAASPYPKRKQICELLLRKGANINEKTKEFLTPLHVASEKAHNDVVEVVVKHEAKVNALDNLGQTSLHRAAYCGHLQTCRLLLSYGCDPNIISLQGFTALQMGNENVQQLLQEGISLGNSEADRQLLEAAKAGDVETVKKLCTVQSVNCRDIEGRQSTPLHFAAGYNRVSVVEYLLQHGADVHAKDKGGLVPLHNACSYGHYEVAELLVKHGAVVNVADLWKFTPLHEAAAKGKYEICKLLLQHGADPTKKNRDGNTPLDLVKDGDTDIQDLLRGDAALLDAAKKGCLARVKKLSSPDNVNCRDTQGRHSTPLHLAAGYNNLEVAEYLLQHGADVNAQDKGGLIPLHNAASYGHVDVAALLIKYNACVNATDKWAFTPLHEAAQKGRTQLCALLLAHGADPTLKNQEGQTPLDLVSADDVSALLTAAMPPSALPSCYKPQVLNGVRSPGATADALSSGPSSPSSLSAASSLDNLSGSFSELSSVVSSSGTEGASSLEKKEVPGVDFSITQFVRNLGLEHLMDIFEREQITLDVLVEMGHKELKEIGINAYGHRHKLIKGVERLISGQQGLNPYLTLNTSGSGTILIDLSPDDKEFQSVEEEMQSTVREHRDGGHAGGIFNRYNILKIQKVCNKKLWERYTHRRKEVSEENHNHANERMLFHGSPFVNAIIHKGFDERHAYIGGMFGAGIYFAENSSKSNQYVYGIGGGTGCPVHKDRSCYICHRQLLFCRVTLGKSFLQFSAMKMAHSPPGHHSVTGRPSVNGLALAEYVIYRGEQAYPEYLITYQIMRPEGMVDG
As to the kind of experiment: Inhibition of human N-terminal 6His-tagged TNKS2 (1030 to 1317 residues) expressed in Escherichia coli Rosetta2 (DE3) cells using NAD+ as substrate incubated for 10 mins by fluorescence based analysis.

Assay [2] concerns the target Poly [ADP-ribose] polymerase 1 (Homo sapiens, UniProt P09874). Put plainly: Inhibition of human PARP-1 using NAD+ as substrate incubated for 10 mins by fluorescence based analysis.
The target in assay [3] is T2, Poly [ADP-ribose] polymerase tankyrase-1 (Homo sapiens, UniProt O95271).
T2 sequence (O95271 whole entry): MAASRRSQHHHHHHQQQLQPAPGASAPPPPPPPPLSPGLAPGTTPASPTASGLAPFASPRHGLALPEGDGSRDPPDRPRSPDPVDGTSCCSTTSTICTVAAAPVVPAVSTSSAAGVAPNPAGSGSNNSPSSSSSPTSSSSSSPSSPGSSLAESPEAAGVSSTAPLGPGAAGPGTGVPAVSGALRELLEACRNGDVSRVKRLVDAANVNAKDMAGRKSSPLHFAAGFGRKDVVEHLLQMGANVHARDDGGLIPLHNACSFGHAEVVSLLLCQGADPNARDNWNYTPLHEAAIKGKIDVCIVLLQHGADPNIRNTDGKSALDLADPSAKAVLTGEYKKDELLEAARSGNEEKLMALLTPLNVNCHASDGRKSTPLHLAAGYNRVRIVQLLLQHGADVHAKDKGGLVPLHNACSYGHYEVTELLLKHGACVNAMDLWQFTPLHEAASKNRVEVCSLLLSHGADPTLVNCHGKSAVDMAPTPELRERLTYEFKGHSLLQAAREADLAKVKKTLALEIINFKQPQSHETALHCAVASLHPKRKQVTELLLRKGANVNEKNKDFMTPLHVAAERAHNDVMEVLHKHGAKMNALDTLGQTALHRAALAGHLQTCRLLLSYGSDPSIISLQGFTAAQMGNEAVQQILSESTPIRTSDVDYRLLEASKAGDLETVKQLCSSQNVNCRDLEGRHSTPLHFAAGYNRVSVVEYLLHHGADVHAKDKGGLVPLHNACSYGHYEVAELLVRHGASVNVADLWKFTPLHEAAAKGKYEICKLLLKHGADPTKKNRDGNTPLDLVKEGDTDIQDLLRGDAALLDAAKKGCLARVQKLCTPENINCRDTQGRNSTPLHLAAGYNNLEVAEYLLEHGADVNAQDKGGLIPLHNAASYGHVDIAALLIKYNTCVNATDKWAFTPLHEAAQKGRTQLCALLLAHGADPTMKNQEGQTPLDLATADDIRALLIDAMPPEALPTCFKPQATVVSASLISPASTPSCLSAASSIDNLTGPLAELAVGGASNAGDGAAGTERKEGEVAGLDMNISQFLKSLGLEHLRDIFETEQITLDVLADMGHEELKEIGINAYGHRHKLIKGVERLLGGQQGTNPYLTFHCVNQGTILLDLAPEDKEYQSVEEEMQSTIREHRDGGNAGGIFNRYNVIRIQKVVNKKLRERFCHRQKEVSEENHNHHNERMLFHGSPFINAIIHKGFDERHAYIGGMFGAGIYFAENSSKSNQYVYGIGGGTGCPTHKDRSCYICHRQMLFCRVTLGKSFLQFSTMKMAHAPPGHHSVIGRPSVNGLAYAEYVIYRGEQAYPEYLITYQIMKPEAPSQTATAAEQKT
As to the kind of experiment: Inhibition of human TNKS1.

Assay [4] addresses Protein mono-ADP-ribosyltransferase PARP14 (Homo sapiens, UniProt Q460N5). Put plainly: Inhibition of human PARP14 using NAD+ as substrate incubated for 10 mins by fluorescence based analysis.

A value given as a limit tells only on which side of the number the result lay.

By IC50 is commonly meant the point on the concentration scale where inhibition reaches its midpoint. The low end stands for greater potency in that assay, the high end for weaker potency in that assay.

Sequence of Poly [ADP-ribose] polymerase 1 (P09874 whole entry): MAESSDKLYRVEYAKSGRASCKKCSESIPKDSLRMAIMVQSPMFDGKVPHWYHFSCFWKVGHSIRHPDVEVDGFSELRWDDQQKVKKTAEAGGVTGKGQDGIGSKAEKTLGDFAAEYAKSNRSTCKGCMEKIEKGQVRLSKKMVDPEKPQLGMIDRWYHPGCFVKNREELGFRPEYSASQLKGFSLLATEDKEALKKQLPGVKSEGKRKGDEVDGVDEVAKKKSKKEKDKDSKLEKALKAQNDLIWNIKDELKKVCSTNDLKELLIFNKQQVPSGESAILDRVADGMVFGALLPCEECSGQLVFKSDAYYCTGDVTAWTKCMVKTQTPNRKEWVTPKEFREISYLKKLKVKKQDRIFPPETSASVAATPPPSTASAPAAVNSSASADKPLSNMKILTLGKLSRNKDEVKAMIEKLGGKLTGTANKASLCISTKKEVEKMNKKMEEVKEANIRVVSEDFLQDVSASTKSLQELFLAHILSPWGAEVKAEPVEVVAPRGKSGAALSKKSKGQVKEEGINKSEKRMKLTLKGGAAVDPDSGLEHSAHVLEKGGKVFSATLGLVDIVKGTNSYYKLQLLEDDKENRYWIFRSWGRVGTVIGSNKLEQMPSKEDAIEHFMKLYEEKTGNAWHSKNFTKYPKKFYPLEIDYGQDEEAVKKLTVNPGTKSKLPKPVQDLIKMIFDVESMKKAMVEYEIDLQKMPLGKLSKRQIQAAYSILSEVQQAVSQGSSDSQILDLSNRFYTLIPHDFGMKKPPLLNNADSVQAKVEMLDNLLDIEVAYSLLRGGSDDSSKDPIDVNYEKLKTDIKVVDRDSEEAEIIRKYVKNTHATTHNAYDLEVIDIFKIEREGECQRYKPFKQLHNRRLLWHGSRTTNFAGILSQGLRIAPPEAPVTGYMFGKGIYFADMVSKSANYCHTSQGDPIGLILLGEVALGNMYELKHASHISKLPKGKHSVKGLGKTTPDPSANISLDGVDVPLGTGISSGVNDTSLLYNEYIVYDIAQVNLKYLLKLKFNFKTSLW
Sequence of Protein mono-ADP-ribosyltransferase PARP14 (Q460N5 whole entry): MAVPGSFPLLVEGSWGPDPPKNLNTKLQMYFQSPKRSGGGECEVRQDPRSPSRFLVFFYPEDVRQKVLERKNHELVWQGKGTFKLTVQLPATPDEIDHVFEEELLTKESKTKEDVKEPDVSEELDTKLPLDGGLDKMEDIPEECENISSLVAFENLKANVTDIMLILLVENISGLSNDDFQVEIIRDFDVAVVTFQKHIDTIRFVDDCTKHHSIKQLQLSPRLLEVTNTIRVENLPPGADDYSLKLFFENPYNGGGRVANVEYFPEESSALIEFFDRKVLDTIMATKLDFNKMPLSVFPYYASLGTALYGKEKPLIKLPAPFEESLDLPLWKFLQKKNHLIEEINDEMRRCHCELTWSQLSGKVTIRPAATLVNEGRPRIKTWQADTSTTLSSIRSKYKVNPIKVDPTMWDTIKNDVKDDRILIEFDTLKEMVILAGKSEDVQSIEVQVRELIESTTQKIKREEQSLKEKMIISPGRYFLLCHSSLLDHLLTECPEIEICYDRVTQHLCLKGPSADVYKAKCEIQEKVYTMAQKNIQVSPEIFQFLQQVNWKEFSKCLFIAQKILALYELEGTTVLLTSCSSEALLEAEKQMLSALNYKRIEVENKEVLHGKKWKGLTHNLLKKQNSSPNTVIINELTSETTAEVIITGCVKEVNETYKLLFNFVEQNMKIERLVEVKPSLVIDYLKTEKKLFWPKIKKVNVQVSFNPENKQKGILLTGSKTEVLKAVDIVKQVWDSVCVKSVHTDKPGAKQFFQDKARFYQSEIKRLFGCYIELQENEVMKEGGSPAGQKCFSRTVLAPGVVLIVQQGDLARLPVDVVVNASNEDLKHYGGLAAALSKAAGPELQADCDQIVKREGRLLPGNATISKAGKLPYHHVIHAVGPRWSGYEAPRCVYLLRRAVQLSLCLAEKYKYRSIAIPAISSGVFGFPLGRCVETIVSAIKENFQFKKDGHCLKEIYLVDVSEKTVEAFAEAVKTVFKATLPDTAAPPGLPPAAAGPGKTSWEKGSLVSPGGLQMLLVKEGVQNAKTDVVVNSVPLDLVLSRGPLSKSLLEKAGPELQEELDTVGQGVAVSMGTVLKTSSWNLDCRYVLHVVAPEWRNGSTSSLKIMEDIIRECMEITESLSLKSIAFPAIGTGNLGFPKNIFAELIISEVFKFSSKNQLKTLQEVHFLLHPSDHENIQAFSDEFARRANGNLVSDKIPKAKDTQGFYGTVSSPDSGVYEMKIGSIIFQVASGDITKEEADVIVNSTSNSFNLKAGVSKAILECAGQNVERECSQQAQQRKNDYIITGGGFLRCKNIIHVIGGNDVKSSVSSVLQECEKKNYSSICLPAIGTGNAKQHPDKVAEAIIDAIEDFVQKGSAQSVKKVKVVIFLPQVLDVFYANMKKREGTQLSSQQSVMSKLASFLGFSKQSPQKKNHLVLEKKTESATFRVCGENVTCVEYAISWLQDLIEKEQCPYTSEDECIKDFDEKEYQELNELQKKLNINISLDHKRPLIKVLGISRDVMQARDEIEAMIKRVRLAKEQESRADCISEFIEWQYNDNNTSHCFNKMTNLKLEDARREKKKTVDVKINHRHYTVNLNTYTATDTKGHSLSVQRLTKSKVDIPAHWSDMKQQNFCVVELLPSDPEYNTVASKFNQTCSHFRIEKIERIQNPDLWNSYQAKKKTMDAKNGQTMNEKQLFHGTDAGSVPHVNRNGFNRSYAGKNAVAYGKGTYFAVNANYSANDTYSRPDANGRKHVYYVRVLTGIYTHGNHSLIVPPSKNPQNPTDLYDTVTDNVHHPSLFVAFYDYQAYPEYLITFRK

Take `NC(=O)c1ccc(OCC2CCC2)cc1`: the IC50 is above 100 µM in assay [1], above 100 µM in assay [2], above 100 µM in assay [3] and above 10 µM in assay [4].
